Laboratory results reported in ChEMBL document CHEMBL1201862, “PubChem BioAssay data set” (2004).
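Method: 48-hour compound exposure of cells in 96-well plates, five concentrations, linear interpolation of endpoints. At the GI50, growth is halved.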 Activity calls are given as the source filed them. Rule as the data show it: active = GI50 up to about 1.1 µM and inactive = higher.

Tests used:
Experiment in all cases: DTP human tumour cell line panel, 48 h
OVCAR-3 = tested on: OVCAR-3
MDA-MB-435 = tested on: MDA-MB-435
T47D = tested on: T47D
CAKI-1 = tested on: CAKI-1
NCI-H460 = tested on: NCI-H460
UACC-62 = tested on: UACC-62
OVCAR-5 = tested on: OVCAR-5
SW-620 = tested on: SW-620
KM12 = tested on: KM12
RXF 393 = tested on: RXF 393
LOX IMVI = tested on: LOX IMVI
HCT-15 = tested on: HCT-15
UO-31 = tested on: UO-31
UACC-257 = tested on: UACC-257
SR = tested on: SR
U-251 = tested on: U-251
786-0 = tested on: 786-0
HT-29 = tested on: HT-29
SF-295 = tested on: SF-295
M14 = tested on: M14
SK-MEL-28 = tested on: SK-MEL-28
OVCAR-8 = tested on: OVCAR-8
NCI-H522 = tested on: NCI-H522
MCF7 = tested on: MCF7
EKVX = tested on: EKVX
HOP-62 = tested on: HOP-62
BT-549 = tested on: BT-549
SK-MEL-5 = tested on: SK-MEL-5
COLO 205 = tested on: COLO 205
SNB-19 = tested on: SNB-19
ACHN = tested on: ACHN
NCI/ADR-RES = tested on: NCI/ADR-RES
DU-145 = tested on: DU-145
K562 = tested on: K562
Malme-3M = tested on: Malme-3M
SK-MEL-2 = tested on: SK-MEL-2
Hs-578T = tested on: Hs-578T
PC-3 = tested on: PC-3
IGROV-1 = tested on: IGROV-1
TK-10 = tested on: TK-10
NCI-H226 = tested on: NCI-H226
HL-60 = tested on: HL-60
SN12C = tested on: SN12C
MDA-MB-231 = tested on: MDA-MB-231
HCT-116 = tested on: HCT-116
RPMI-8226 = tested on: RPMI-8226
NCI-H23 = tested on: NCI-H23
OVCAR-4 = tested on: OVCAR-4
SF-268 = tested on: SF-268
MOLT-4 = tested on: MOLT-4
A498 = tested on: A498
HOP-92 = tested on: HOP-92
SK-OV-3 = tested on: SK-OV-3
SF-539 = tested on: SF-539
A549 = tested on: A549
MDA-N = tested on: MDA-N
CCRF-CEM = tested on: CCRF-CEM
SNB-75 = tested on: SNB-75

Measured: GI50

O=C(CSc1nc2ccccc2s1)c1sc2sc3ccccc3[n+]2c1[O-]
inactive: OVCAR-3 > 100 µM | MDA-MB-435 > 100 µM | T47D > 100 µM | CAKI-1 > 100 µM | NCI-H460 > 100 µM | UACC-62 > 100 µM | OVCAR-5 > 100 µM | SW-620 > 100 µM | KM12 > 100 µM | RXF 393 > 100 µM | LOX IMVI > 100 µM | UO-31 > 100 µM | UACC-257 > 100 µM | SR > 100 µM | U-251 > 100 µM | 786-0 > 100 µM | HT-29 > 100 µM | SF-295 > 100 µM | M14 > 100 µM | SK-MEL-28 > 100 µM | OVCAR-8 > 100 µM | NCI-H522 > 100 µM | MCF7 > 100 µM | EKVX > 100 µM | HOP-62 > 100 µM | BT-549 > 100 µM | SK-MEL-5 > 100 µM | COLO 205 > 100 µM | SNB-19 > 100 µM | ACHN > 100 µM | NCI/ADR-RES > 100 µM | DU-145 > 100 µM | K562 > 100 µM | Malme-3M > 100 µM | SK-MEL-2 > 100 µM | Hs-578T > 100 µM | PC-3 > 100 µM | IGROV-1 > 100 µM | TK-10 > 100 µM | NCI-H226 > 100 µM | HL-60 > 100 µM | SN12C > 100 µM | MDA-MB-231 26.9 µM | HCT-116 > 100 µM | RPMI-8226 > 100 µM | NCI-H23 > 100 µM | OVCAR-4 > 100 µM | SF-268 > 100 µM | MOLT-4 > 100 µM | A498 > 100 µM | HOP-92 > 100 µM | SK-OV-3 > 100 µM | SF-539 > 100 µM | A549 > 100 µM | MDA-N > 100 µM
> 100 µM: HCT-15

CCOC(=O)/C(=N\Nc1ccc(-n2c(C)nc3ccc(Br)cc3c2=O)cc1)C(C)=O
64.4 µM: HCT-15
inactive: OVCAR-3 > 100 µM | MDA-MB-435 50.6 µM | T47D 33.1 µM | CAKI-1 > 100 µM | NCI-H460 99.3 µM | UACC-62 46.9 µM | OVCAR-5 > 100 µM | SW-620 > 100 µM | KM12 59.6 µM | LOX IMVI > 100 µM | UO-31 29.8 µM | UACC-257 84.5 µM | SR 22.3 µM | U-251 59.6 µM | 786-0 59.2 µM | HT-29 > 100 µM | SF-295 48 µM | CCRF-CEM 31.1 µM | M14 62.4 µM | SK-MEL-28 88.7 µM | OVCAR-8 55.2 µM | MCF7 50.4 µM | EKVX 72.1 µM | HOP-62 42.8 µM | BT-549 47 µM | SK-MEL-5 13.1 µM | COLO 205 54.3 µM | SNB-75 30.7 µM | SNB-19 52.1 µM | ACHN 93.1 µM | NCI/ADR-RES 52 µM | DU-145 > 100 µM | K562 35.2 µM | SK-MEL-2 70 µM | Hs-578T 29.1 µM | PC-3 44.6 µM | IGROV-1 > 100 µM | TK-10 60.3 µM | NCI-H226 77.8 µM | HL-60 5.32 µM | SN12C > 100 µM | MDA-MB-231 31.9 µM | HCT-116 43.6 µM | RPMI-8226 16.4 µM | NCI-H23 69.5 µM | SF-268 67.6 µM | MOLT-4 25.2 µM | A498 52.7 µM | HOP-92 38 µM | SK-OV-3 > 100 µM | SF-539 38.8 µM | A549 53.8 µM | MDA-N 71.1 µM
